The source of these data is patent US20140080810A1 (Exelixis, Inc., priority 2010, published 2014).

Molecules are shown by their SMILES. Where two headings read alike, the source gives them in different places.

For experiment [1], the system named is pAKT (T308) in MCF-7 cells (PI3Kα E545K). The experiment in a line: pAKT (T308) ELISA Assay. It is filed as cell-based. As to conditions: Homo sapiens, MCF7. How it is done: MCF-7 cells (ATCC) cells were seeded at 24000 cells per well in 96-well plates (Corning, 3904) in DMEM (Cellgro) containing 10% FBS (Cellgro), 1% NEAA (Cellgro) and 1% penicillin-streptomycin (Cellgro). Cells were incubated at 37° C., 5% CO2 for 48 h, and the growth medium was replaced with serum-free DMEM or in medium containing 0.4% BSA. Serial dilutions of the test Compound in 0.3% DMSO (vehicle) were added to the cells and incubated for 3 h. At the end of the incubation period, cells were stimulated for 10 minutes by the addition of L-IGF (Sigma, I-1271) at a final concentration of 100 ng/ml. Afterwards, media was discarded from cell plates and 110 μl/well of cold lysis buffer (see table below) were added. Cell plates were incubated on ice and then put on shaker in 4° C. cold room for 1 h. Two capture plates (Thermo Scientific, Reacti-bind plate, 15042) were prepared for each cell plate by pre-coating with capture Akt antibody from the two sandwich ELISA antibody pairs used (Cell Signaling Technology 7142 and 7144). The Akt capture antibodies were diluted 1:100 in PBS and 100 μl of diluted capture antibody was added per well. Capture plates were incubated at 4 C overnight. Prior to use, capture plates were washed 3 times in TBS containing 0.1% Tween20 (Bio-Rad, 170-6351) (TBST) and blocked in blocking buffer (Thermo Scientific, Starting Block T20, 37543) for 1-2 h at room temperature. After 1 h of cell lysis, 85 μl of cell lysate/well was transferred to the capture plate for detection of pAkt(T308). 15 μl of cell lysate was transferred from same well to the second capture plate for detection of total Akt1. After incubation overnight at 4° C., plates were washed 3 times with 200 μL TBST. Primary antibodies, diluted 1:100 in blocking buffer, were added to the corresponding capture plates for pAkt(T308) (Cell Signaling Technology, 7144) and total Akt1 (Cell Signaling Technology, 7142) detection and incubated at room temperature for 1 h. Plates were washed 3 times with 200 μL of TBST. Goat anti-mouse secondary antibody (Cell Signaling Technology, 7076) conjugated to HRP was diluted 1:1000 in blocking buffer and 100 μl were added to each well and incubated for 30 minutes at room temperature. Plates were then washed 3 times with 200 μL of TBST. 100 μL of SuperSignal ELISA Femto stable peroxidase solution (Thermo Scientific, 37075) was added to each well. After 1 minute incubation, chemiluminescence was read on a Wallac Victor2 1420 multilabel counter. IC50 values were determined based on the ratio of pAkt(T308) to total Akt1 signal for Compound treated wells, normalized to the DMSO-treated control wells.
In another embodiment, the pAKT ELISA Assay was performed by seeding cells onto 96-well plates (Corning, 3904) in their respective growth media at the densities listed in Table 5. Cells were incubated at 37° C., 5% CO2 for 48 h (except MDA-MB-453 cells which were cultured in the absence of CO2). Compounds were serially diluted in DMSO and subsequently diluted in serum-free DMEM. Test compounds were added to cells in serum-free DMEM at a final concentration of 0.3% DMSO and incubated for 3 h. Cells were lysed with 130 μL of ice-cold RIPA lysis buffer (50 mM Tris-HCl, pH 7.5; 0.5% sodium deoxycholic acid; 1% Triton X-100; 0.1% SDS; 150 mM NaCl) with protease and phosphatase inhibitors (1 mM EDTA, 1 mM NaF, 20 mM β-glycerophosphate, 1 mM Na-orthovanadate, Complete-Mini EDTA-free, Roche, 11836170001, and Phosphatase Inhibitor Cocktail I, Sigma, P2850), directly in 96-well plates. Cells were lysed on ice for 60-120 min at 4° C. The supernatants were added directly to capture ELISA plates previously pre-coated with rabbit anti-AKT capture antibody. ELISA assays for pAKT(T308) and total AKT were performed with the pAKT(T308) ELISA kit (Cell Signaling Technology, 7144) and AKT1 ELISA kit (Cell Signaling Technology, 7142). For the pAKT(T308) ELISA, 85 μL of cell lysate was added to each well. […]
On the technique in general: An ELISA detects its analyte on a solid surface through an enzyme-linked reagent.

For another experiment, the target named is PI3Kβ (Homo sapiens, UniProt P42338). The experiment in a line: PI3K Biochemical Assay. As to conditions: PIP2 used as substrate. How it is done:
PI3Kα activity is measured as the percent of ATP consumed following the kinase reaction using luciferase-luciferin-coupled chemiluminescence. Reactions were conducted in 384-well white, medium binding microtiter plates (Greiner). Kinase reactions were initiated by combining test compounds, ATP, substrate (PIP2), and kinase in a 20 μL volume in a buffer solution. The standard PI3Kalpha assay buffer is composed 50 mM Tris, pH 7.5, 1 mM EGTA, 10 mM MgCl2, 1 mM DTT and 0.03% CHAPS. The standard assay concentrations for enzyme, ATP, and substrate are 1.5 nM, 1 μM, and 10 μM, respectively. The reaction mixture was incubated at ambient temperature for approximately 2 h. Following the kinase reaction, a 10 μL aliquot of luciferase-luciferin mix (Promega Kinase-Glo) was added and the chemiluminescence signal measured using a Victor2 plate reader (Perkin Elmer). […] Substituting PI3Kα with PI3Kβ, PI3Kγ, or PI3Kδ, the inhibitory activity of the compounds for the other isoforms of I3K were measured.

The mark [2] stands for this setting: IGF1 stimulation, read-out: pAKT (T308) IC50 MCF-7 PI3Kα E545K IGF1.
The mark [3] stands for this setting: Table 7, stimulation line of the head prints PI3Kα, read-out: Cellular pAKT (T308) IC50 PI3KαE545K MCF-7.

PI3Kβ, sequence (P42338 whole entry): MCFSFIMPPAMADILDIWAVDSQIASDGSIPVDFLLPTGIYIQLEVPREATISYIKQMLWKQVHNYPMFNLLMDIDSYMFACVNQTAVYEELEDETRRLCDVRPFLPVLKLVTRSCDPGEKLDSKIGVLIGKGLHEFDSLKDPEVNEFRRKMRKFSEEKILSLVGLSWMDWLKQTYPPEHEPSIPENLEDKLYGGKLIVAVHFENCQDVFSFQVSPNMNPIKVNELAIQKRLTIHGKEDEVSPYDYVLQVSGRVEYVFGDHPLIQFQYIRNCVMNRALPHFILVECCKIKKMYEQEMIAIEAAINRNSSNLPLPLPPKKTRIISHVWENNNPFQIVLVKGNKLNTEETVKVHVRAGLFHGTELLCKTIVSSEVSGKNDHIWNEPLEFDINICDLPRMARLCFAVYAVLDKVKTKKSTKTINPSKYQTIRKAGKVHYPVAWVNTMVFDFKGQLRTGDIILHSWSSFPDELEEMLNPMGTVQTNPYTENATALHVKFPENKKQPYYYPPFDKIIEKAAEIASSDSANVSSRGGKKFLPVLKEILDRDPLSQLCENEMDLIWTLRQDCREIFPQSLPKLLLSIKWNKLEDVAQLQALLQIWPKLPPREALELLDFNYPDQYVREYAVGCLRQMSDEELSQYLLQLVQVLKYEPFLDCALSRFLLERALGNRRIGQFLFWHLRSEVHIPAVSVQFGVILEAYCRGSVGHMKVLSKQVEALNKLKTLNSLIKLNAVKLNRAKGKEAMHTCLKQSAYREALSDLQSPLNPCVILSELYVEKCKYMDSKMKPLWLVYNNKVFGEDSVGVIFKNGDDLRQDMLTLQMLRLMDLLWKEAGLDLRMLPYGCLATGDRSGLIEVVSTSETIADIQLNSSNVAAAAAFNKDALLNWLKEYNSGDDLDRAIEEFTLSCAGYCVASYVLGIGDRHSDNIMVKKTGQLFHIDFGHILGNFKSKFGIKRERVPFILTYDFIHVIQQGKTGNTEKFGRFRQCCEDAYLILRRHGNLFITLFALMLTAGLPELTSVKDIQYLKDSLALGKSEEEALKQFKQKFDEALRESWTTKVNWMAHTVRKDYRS
PI3Kβ, sequence (P27986 whole entry partner): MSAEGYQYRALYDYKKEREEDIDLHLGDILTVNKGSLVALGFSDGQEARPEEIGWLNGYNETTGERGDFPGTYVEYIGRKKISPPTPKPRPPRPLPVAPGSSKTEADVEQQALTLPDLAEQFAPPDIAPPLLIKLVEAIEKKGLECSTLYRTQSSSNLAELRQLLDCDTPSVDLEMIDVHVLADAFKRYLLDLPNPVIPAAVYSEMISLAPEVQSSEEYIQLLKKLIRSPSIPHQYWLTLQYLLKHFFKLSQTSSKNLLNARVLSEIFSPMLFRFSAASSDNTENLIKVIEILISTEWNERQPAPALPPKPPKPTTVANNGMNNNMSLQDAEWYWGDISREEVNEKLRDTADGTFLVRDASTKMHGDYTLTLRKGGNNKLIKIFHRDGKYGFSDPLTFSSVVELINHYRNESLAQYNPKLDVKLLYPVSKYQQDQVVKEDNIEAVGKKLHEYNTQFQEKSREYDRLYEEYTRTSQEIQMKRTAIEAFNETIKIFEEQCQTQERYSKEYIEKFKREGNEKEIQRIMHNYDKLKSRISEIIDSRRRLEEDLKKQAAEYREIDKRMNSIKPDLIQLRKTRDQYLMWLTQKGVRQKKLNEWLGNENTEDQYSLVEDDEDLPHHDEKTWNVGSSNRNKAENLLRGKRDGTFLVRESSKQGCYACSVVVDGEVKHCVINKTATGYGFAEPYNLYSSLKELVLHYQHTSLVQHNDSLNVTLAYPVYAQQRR

Consider `CCNc1nc2ccc(-c3ccc4c(c3)CN(c3ncnc(NCC)c3C)CCO4)cc2[nH]1` [Compound 699], for which the IC50 in experiment [1] (setting [2]) turned out to be 2.4 µM; in experiment [1] (setting [3]) it was 2.4 µM; at PI3Kβ, 1.74 µM.
On to `COc1ccc2c(N3CCOc4ccc(-c5cnc6nc(C)[nH]c6c5)cc4C3)nc(CN(C)C)nc2c1` [Compound 696], for which the half-maximal inhibitory concentration (IC50) in experiment [1] (setting [2]) was determined as 1.65 µM; in experiment [1] (setting [3]), 1.65 µM; on PI3Kβ, 1.31 µM.
Turning to `CCNc1nc2ccc(-c3ccc4c(c3)CN(c3ccnc5cc(F)ccc35)CCO4)cc2[nH]1` [Compound 698], the concentration for half-maximal inhibition (IC50) in experiment [1] (setting [2]) was determined as 2.24 µM; in experiment [1] (setting [3]), 2.24 µM; at PI3Kβ it was 1.56 µM.
As for `Cc1nc2ncc(-c3ccc4c(c3)CN(c3nc(CN(C)C)nc5c3CC(C)(C)CC5)CCO4)cc2[nH]1` [Compound 693], the figures for the IC50 (in experiment [1] (setting [2]); in experiment [1] (setting [3]); against PI3Kβ) were 0.12 µM, 0.12 µM and > 3 µM, respectively.
`Cc1nc2cc(-c3ccc4c(c3)CN(c3nc(CN(C)C)nc(C)c3C(C)C)CCO4)cnc2[nH]1` [Compound 694]: the IC50 in experiment [1] (setting [2]) was 0.135 µM; in experiment [1] (setting [3]) it was 0.135 µM; at PI3Kβ it was > 3 µM.

The IC50 is the concentration at which inhibition is half-maximal.
